Measurements as given in patent publication US20150336881A1, “AMIDE COMPOUND AND USE THEREOF FOR PEST CONTROL” (Sumitomo Chemical Company, Limited, priority 2012, published 2015).

Each molecule was assayed on Blattella germanica (assay: Test Example 9: treated filter paper with sucrose bait, Blattella germanica). Details: 500 ppm, 0.7 ml on filter paper, male imagoes of Blattella germanica, after 6 days.
Format: in vivo
Protocol: The formulations of Compounds of Present Invention 3, 10 and 11 as obtained in Formulation Example 5 were diluted with water, so as to have a concentration of the active ingredient of 500 ppm, to prepare a diluted liquid for test.
(§1) A filter paper having a diameter of 5.5 cm was spread on the bottom of a polyethylene cup having the same diameter and 0.7 ml of the diluted liquid for test was added dropwise onto the filter paper, and 30 mg of sucrose was uniformly placed as bait. Into the polyethylene cup, 2 male imagoes of Blattella germanica were released, and the cup was sealed with a lid. After 6 days, the life and death of Blattella germanica was examined, and the mortality was calculated.

For `CCS(=O)(=O)c1cc(C(F)(F)F)ccc1C(=O)N(C)c1ccc(C(F)(F)C(F)(F)F)cc1` [compound 10], which mortality is on record?
The mortality was 100%.

How did the mortality turn out when `CCS(=O)(=O)c1cc(C(F)(F)F)ccc1C(=O)N(C)c1ccc(SC(F)(F)F)cc1` [compound 11] was run?
The mortality was 100%.

These molecules were tested on Musca domestica (assay: Test Example 8: treated filter paper with sucrose bait, Musca domestica). Details: 0.7 ml on filter paper, female imagoes of Musca domestica, after 24 hours.
Format: in vivo
Protocol: Each of formulations of Compounds of Present Invention 1 to 5, 10, 18, 19, 25, 26, 60 and 68 and Intermediate Compound M6-1 as obtained in Formulation Example 5 was diluted with water, so as to have a concentration of the active ingredient of 500 ppm, to prepare a diluted liquid for test.
as §1, with “10 female” for “2 male”, “Musca domestica” for “Blattella germanica”, “24 hours,” for “6 days,”

How did the mortality at 500 ppm turn out when `CCSc1cc(C(F)(F)F)ccc1C(=O)Nc1ccc(C(F)(F)F)cc1` [Intermediate Compound M6-1, 2-ethylsulfanyl-4-trifluoromethyl-N-(4-trifluoromethyl-phenyl)-benzamide] was run?
The mortality at 500 ppm was 100%.

The molecules below were run on Culex pipiens pallens (assay: Test Example 10: Culex pipiens pallens larvae in treated water). Details: 24 h; active ingredient concentration 3.5 ppm in water, last-instar larvae of Culex pipiens pallens, one day later.
Format: in vivo
Protocol: (§2) The formulations of Compounds of Present Invention 1 to 5, 8 to 11, 13, 18, 19, 25, 26, 44, 53 to 55, 59, 60, 68 to 74, 78, 86 to 88 and 90 and Intermediate Compounds M6-3, M6-4, M6-11, M6-12 and M6-23 as obtained in Formulation Example 5 were diluted with water, so as to have a concentration of the active ingredient of 500 ppm, to prepare a diluted liquid for test.
0.7 ml of the diluted liquid for test was added to 100 ml of ion-exchanged water (active ingredient concentration: 3.5 ppm). 20 last-instar larvae of Culex pipiens pallens were released into the solution. One day later, the life and death of the Culex pipiens pallens was examined, and the mortality of the pest was calculated.

How did the mortality at 3.5 ppm turn out when `CCSc1cc(C(F)(F)F)ccc1C(=O)Nc1ccc(C(F)(F)C(F)(F)F)cc1` [Intermediate Compound M6-3, 2-ethylsulfanyl-N-(4-pentafluoroethyl-phenyl)-4-trifluoromethyl-benzamide] was run?
Its mortality at 3.5 ppm is ≥ 95%.

`CCSc1cc(C(F)(F)F)ccc1C(=O)Nc1ccc(SC(F)(F)F)cc1` [Intermediate Compound M6-4, 2-ethylsulfanyl-N-(4-trifluoromethylsulfanyl-phenyl)-4-trifluoromethyl-benzamide] was tested. Which mortality at 3.5 ppm did it give?
Its mortality at 3.5 ppm is ≥ 95%.

These molecules were tested on Adoxophyes orana fasciata (assay: Test Example 7: sprayed apple tree, Adoxophyes orana fasciata larvae released). Details: in vivo.
Protocol: as §2, with “14,” for “11, 13,”, “54,” for “44, 53 to”, “55,” for “55, 59,”, “74, 76 to” for “74,”, “85, 86,” for “86 to”, “M6-8 to M6-13” for “M6-3, M6-4, M6-11, M6-12 and M6-23”
On the other hand, an apple tree was planted in a plastic cup, and grown until the seventh-eighth true leaf was spread. To the apple tree was sprayed in an amount of 20 mL/cup of the diluted liquid for test. After the drug solution was dried, 60 first-instar Adoxophyes orana fasciata were released, and the plastic cup the bottom of which was cut off and on which a filter paper was put was upside-down and covered. After 7 days, the number of surviving insects was counted, and the mortality was calculated according to the following equation:
Mortality (%)=(Number of dead insects/Number of tested insects)×100.

With `CCSc1cc(C(F)(F)F)ccc1C(=O)Nc1ccc(C(F)(F)F)cc1` [Intermediate Compound M6-1, 2-ethylsulfanyl-4-trifluoromethyl-N-(4-trifluoromethyl-phenyl)-benzamide] as the molecule, how does the mortality read?
The mortality was 100%.

For `CCS(=O)(=O)c1cc(C(F)(F)F)ccc1C(=O)N(C)c1ccc(C(F)(F)C(F)(F)F)cc1` [compound 10], which mortality is on record?
Its mortality is 100%.

For `CCSc1ccccc1C(=O)N(C)c1ccc(C(F)(F)C(F)(F)F)cc1` [compound 18], which mortality is on record?
Its mortality is 100%.

With `CCSc1ccccc1C(=O)N(C)c1ccc(SC(F)(F)F)cc1` [compound 19] as the molecule, how does the mortality read?
Its mortality is 100%.

With `CCS(=O)(=O)c1ccccc1C(=O)N(C)c1ccc(C(F)(F)C(F)(F)F)cc1` [compound 25] as the molecule, how does the mortality read?
The mortality was 100%.

With `CCS(=O)(=O)c1ccccc1C(=O)N(C)c1ccc(SC(F)(F)F)cc1` [compound 26] as the molecule, how does the mortality read?
Its mortality is 100%.

How did the mortality turn out when `CCSc1cc(C(F)(F)F)ccc1C(=O)N(C)c1ccc(OC(F)(F)F)c(Br)c1` [compound 60] was run?
Its mortality is 100%.

For `CCSc1cc(C(F)(F)F)ccc1C(=O)N(C)c1ccc(C(F)(F)F)c(Cl)c1` [compound 68], which mortality is on record?
Its mortality is 100%.
